{"source": "paper PMC9389804", "about": "(Journal of Hematology & Oncology, 2022)", "origin": "cited, not measured here", "set-up": "method as in PMID 29567798", "conditions": "median follow-up of 5 years; cited from earlier work"}
{"smiles": "Cc1ccc(C(=O)Nc2ccc(CN3CCN(C)CC3)c(C(F)(F)F)c2)cc1C#Cc1cnc2cccnn12", "note": "[ponatinib]", "values": [{"measurement": "incidence of arterial occlusive and venous thrombotic events", "value": 31.0, "unit": "%"}]}
